In patent publication US20110054179A1, “MMP-2 AND/OR MMP-9 INHIBITOR” (priority 2008, published 2011):

Key:
[1] = test system: bleomycin- or asbestos-induced lung fibrosis; settings: bleomycin- or asbestos-induced lung fibrosis animal model; cited from earlier work
[2] = test system: elastase-induced lung injury; assay: Rabbit model of elastase-induced lung injury: lung histology (alveolar destruction, airway subepithelial fibrotic changes); assay type: in vivo
From the text: Rabbits were divided into three groups (n=10 animals/group). Two hundred U/kg of porcine pancreatic elastase (PPE) was intratracheally administered into the lungs of the animals in the Vehicle and the Compound A group. The animals in the Sham group was intratracheally administered the same volume of saline instead of PPE. The rabbits were dissected 28 days after PPE administration. The lung tissue of each rabbit was fixed in formalin to prepare histological sections thereof. Two hours prior to the administration of PPE, Vehicle (0.5% tragacanth) or Compound A (10 mg/kg) was orally administered to the rabbits in the Vehicle and the Compound A group, respectively; from the next day, the oral administration of Vehicle or Compound A was continued once a day, 5 days a week until the end of the experiment. The histological sections were immunohistochemically stained using respective antibodies against MMP-2 or MMP-9. Then, under the microscope, the extent of MMP-2 and MMP-9 expression was evaluated, and expressed as a score. The extent of the fibrotic changes in the airway subepithelial region and the extent of alveolar destruction were also observed.

[3] = 28 days after PPE, 10 mg/kg oral, vs. Vehicle group

SMILES | increase in MMP activity and the number of white blood cell infiltrated in the bronchoalveolar lavage fluid [1] | lung fibrosis in the histological and biochemical aspects [1] | Alveolar Mean Linear Intercept (Average ± Standard deviation) ([2]; 28 days after PPE 200 U/kg intratracheal, 10 mg/kg oral once a day, 5 days a week, p<0.01 vs. Vehicle) [μm ##] | alveolar destruction [2, 3] | thickening of the airway subepithelial layer resulted from fibrotic changes [2, 3]
CNC(=O)[C@H](Cc1c[nH]c2ccccc12)NC(=O)[C@@H](CC(=O)NO)CC(C)C [GM6001] | suppressed | suppressed | – | – | –
CCOc1ccc(-c2nc(-c3cccc(C(=O)O)n3)cs2)cc1OCC [Compound A, 6-[2-(3,4-diethoxyphenyl)thiazol-4-yl]pyridine-2-carboxylic acid] | – | – | 72.8 ± 2.6 | significantly suppressed | alleviated
